In ChEMBL document CHEMBL3885861, “Open TG-GATES”:

Species: Rattus norvegicus
Assay: Open TG-GATES - Regimen: Daily Repeat
Assay type: toxicity, organism-based, Sprague-Dawley
Parameters: regimen Daily Repeat, gender Male, age 6 weeks
Settings: in vivo, po, 50 mg/kg, route gavage, dose level Middle; for APTT / Bas / Eos / Fbg / Hb / Ht / Lym / MCH / MCHC / MCV / Mono / Neu / PT / Plat / RBC / Ret / WBC: tissue Blood; for KIDNEY_L / KIDNEY_R / KIDNEY_TOTAL: tissue Kidney; for LIVER: tissue Liver; for A/G / ALP / ALT / AST / BUN / CRE / Ca / Cl / DBIL / GLC / IP / K / LDH / Na / PL / RALB / TBIL / TC / TG / TP / gamma-GTP: tissue Plasma

CN(C)CCC=C1c2ccccc2CCc2ccccc21 [AMITRIPTYLINE]
TERMINAL_BW (72 h, time 3 day): 221 g | APTT (72 h, time 3 day): 16.6 s | Bas (72 h, time 3 day): 0.2% | Eos (72 h, time 3 day): 1% | Fbg (72 h, time 3 day): 279.2 mg/dL | Hb (72 h, time 3 day): 13.3 g/dL | Ht (72 h, time 3 day): 40% | Lym (72 h, time 3 day): 80.2% | MCH (72 h, time 3 day): 21 pg | MCHC (72 h, time 3 day): 33.3% | MCV (72 h, time 3 day): 63.1 fL | Mono (72 h, time 3 day): 2.6% | Neu (72 h, time 3 day): 15.6% | PT (72 h, time 3 day): 16.3 s | Plat (72 h, time 3 day): 120.1 x10_4/uL | RBC (72 h, time 3 day): 634.6 x10_4/ul | Ret (72 h, time 3 day): 6% | WBC (72 h, time 3 day): 115.2 x10_2/uL | KIDNEY_L (72 h, time 3 day): 0.9 g | KIDNEY_R (72 h, time 3 day): 0.9 g | KIDNEY_TOTAL (72 h, time 3 day): 1.8 g | LIVER (72 h, time 3 day): 10.1 g | A/G (72 h, time 3 day): 0.8 | ALP (72 h, time 3 day): 1628.8 IU/L | ALT (72 h, time 3 day): 49.4 IU/L | AST (72 h, time 3 day): 67.6 IU/L | BUN (72 h, time 3 day): 16 mg/dL | CRE (72 h, time 3 day): 0.2 mg/dL | Ca (72 h, time 3 day): 10.9 mg/dL | Cl (72 h, time 3 day): 105.6 meq/L | DBIL (72 h, time 3 day): 0.02 mg/dL | GLC (72 h, time 3 day): 180.6 mg/dL | IP (72 h, time 3 day): 7.8 mg/dL | K (72 h, time 3 day): 4.4 meq/L | LDH (72 h, time 3 day): 62.8 IU/L | Na (72 h, time 3 day): 143.8 meq/L | PL (72 h, time 3 day): 158.4 mg/dL | RALB (72 h, time 3 day): 2.6 g/dL | TBIL (72 h, time 3 day): 0.048 mg/dL | TC (72 h, time 3 day): 87 mg/dL | TG (72 h, time 3 day): 98.8 mg/dL | TP (72 h, time 3 day): 5.8 g/dL | gamma-GTP (72 h, time 3 day): 0.8 IU/L | TERMINAL_BW ([…], time 7 day): 255.7 g | TERMINAL_BW ([…], time 14 day): 305.2 g | TERMINAL_BW ([…], time 28 day): 359.5 g | APTT ([…], time 7 day): 15 s | Bas ([…], time 7 day): 0.4% | Eos ([…], time 7 day): 1% | Fbg ([…], time 7 day): 280.6 mg/dL | Hb ([…], time 7 day): 13.2 g/dL | Ht ([…], time 7 day): 40% | Lym ([…], time 7 day): 74.8% | MCH ([…], time 7 day): 20.7 pg | MCHC ([…], time 7 day): 33% | MCV ([…], time 7 day): 62.7 fL | Mono ([…], time 7 day): 2.8% | Neu ([…], time 7 day): 20.4% | PT ([…], time 7 day): 15.5 s | Plat ([…], time 7 day): 108.4 x10_4/uL | RBC ([…], time 7 day): 638 x10_4/ul | Ret ([…], time 7 day): 5.2% | WBC ([…], time 7 day): 119.8 x10_2/uL | APTT ([…], time 14 day): 16.5 s | Bas ([…], time 14 day): 0.2% | Eos ([…], time 14 day): 1% | Fbg ([…], time 14 day): 299 mg/dL | Hb ([…], time 14 day): 14.4 g/dL | Ht ([…], time 14 day): 43.2% | Lym ([…], time 14 day): 77.2% | MCH ([…], time 14 day): 20.2 pg | MCHC ([…], time 14 day): 33.4% | MCV ([…], time 14 day): 60.5 fL | Mono ([…], time 14 day): 2.8% | Neu ([…], time 14 day): 18.2% | PT ([…], time 14 day): 16.2 s | Plat ([…], time 14 day): 111 x10_4/uL | RBC ([…], time 14 day): 713.6 x10_4/ul | Ret ([…], time 14 day): 4% | WBC ([…], time 14 day): 107.8 x10_2/uL | APTT ([…], time 28 day): 20.1 s | Bas ([…], time 28 day): 0.8% | Eos ([…], time 28 day): 0.8% | Fbg ([…], time 28 day): 289.6 mg/dL | Hb ([…], time 28 day): 15.6 g/dL | Ht ([…], time 28 day): 45% | Lym ([…], time 28 day): 80.6% | MCH ([…], time 28 day): 19.6 pg | MCHC ([…], time 28 day): 34.6% | MCV ([…], time 28 day): 56.5 fL | Mono ([…], time 28 day): 2.4% | Neu ([…], time 28 day): 14.8% | PT ([…], time 28 day): 16.6 s | Plat ([…], time 28 day): 101.5 x10_4/uL | RBC ([…], time 28 day): 797.2 x10_4/ul | Ret ([…], time 28 day): 2.1% | WBC ([…], time 28 day): 134.2 x10_2/uL | KIDNEY_L ([…], time 7 day): 1.1 g | KIDNEY_R ([…], time 7 day): 1.1 g | KIDNEY_TOTAL ([…], time 7 day): 2.1 g | KIDNEY_L ([…], time 14 day): 1.2 g | KIDNEY_R ([…], time 14 day): 1.2 g | KIDNEY_TOTAL ([…], time 14 day): 2.3 g | KIDNEY_L ([…], time 28 day): 1.4 g | KIDNEY_R ([…], time 28 day): 1.4 g | KIDNEY_TOTAL ([…], time 28 day): 2.7 g | LIVER ([…], time 7 day): 11.1 g | LIVER ([…], time 14 day): 12.6 g | LIVER ([…], time 28 day): 14.2 g | A/G ([…], time 7 day): 0.8 | ALP ([…], time 7 day): 1561.4 IU/L | ALT ([…], time 7 day): 47.4 IU/L | AST ([…], time 7 day): 69 IU/L | BUN ([…], time 7 day): 15.8 mg/dL | CRE ([…], time 7 day): 0.2 mg/dL | Ca ([…], time 7 day): 10.9 mg/dL | Cl ([…], time 7 day): 104.6 meq/L | DBIL ([…], time 7 day): 0.012 mg/dL | GLC ([…], time 7 day): 187 mg/dL | IP ([…], time 7 day): 7.3 mg/dL | K ([…], time 7 day): 3.8 meq/L | LDH ([…], time 7 day): 66.4 IU/L | Na ([…], time 7 day): 143.6 meq/L | PL ([…], time 7 day): 156.4 mg/dL | RALB ([…], time 7 day): 2.6 g/dL | TBIL ([…], time 7 day): 0.046 mg/dL | TC ([…], time 7 day): 80.4 mg/dL | TG ([…], time 7 day): 114 mg/dL | TP ([…], time 7 day): 5.8 g/dL | gamma-GTP ([…], time 7 day): 1 IU/L | A/G ([…], time 14 day): 0.8 | ALP ([…], time 14 day): 1627.8 IU/L | ALT ([…], time 14 day): 43.4 IU/L | AST ([…], time 14 day): 69.6 IU/L | BUN ([…], time 14 day): 17 mg/dL | CRE ([…], time 14 day): 0.2 mg/dL | Ca ([…], time 14 day): 11 mg/dL | Cl ([…], time 14 day): 105.4 meq/L | DBIL ([…], time 14 day): 0.022 mg/dL | GLC ([…], time 14 day): 186.6 mg/dL | IP ([…], time 14 day): 7.2 mg/dL | K ([…], time 14 day): 4 meq/L | LDH ([…], time 14 day): 72.6 IU/L | Na ([…], time 14 day): 143.6 meq/L | PL ([…], time 14 day): 156.2 mg/dL | RALB ([…], time 14 day): 2.7 g/dL | TBIL ([…], time 14 day): 0.05 mg/dL | TC ([…], time 14 day): 77.4 mg/dL | TG ([…], time 14 day): 145.2 mg/dL | TP ([…], time 14 day): 6 g/dL | gamma-GTP ([…], time 14 day): 0.6 IU/L | A/G ([…], time 28 day): 0.8 | ALP ([…], time 28 day): 1098.4 IU/L | ALT ([…], time 28 day): 40.8 IU/L | AST ([…], time 28 day): 61.8 IU/L | BUN ([…], time 28 day): 17.2 mg/dL | CRE ([…], time 28 day): 0.2 mg/dL | Ca ([…], time 28 day): 10.3 mg/dL | Cl ([…], time 28 day): 104.2 meq/L | DBIL ([…], time 28 day): 0.018 mg/dL | GLC ([…], time 28 day): 186.6 mg/dL | IP ([…], time 28 day): 6.3 mg/dL | K ([…], time 28 day): 4 meq/L | LDH ([…], time 28 day): 62.4 IU/L | Na ([…], time 28 day): 141.6 meq/L | PL ([…], time 28 day): 139.8 mg/dL | RALB ([…], time 28 day): 2.8 g/dL | TBIL ([…], time 28 day): 0.058 mg/dL | TC ([…], time 28 day): 71.4 mg/dL | TG ([…], time 28 day): 108 mg/dL | TP ([…], time 28 day): 6.3 g/dL | gamma-GTP ([…], time 28 day): 0.6 IU/L
